Results reported in patent US10231985B2, “Compounds and compositions comprising such compounds for the prevention or treatment of dyslipidaemias” (CENTRE NATIONAL DE LA RECHERCHE SCIENTIFIQUE, priority 2013, dated 2019).

Experiments:
[1] = tested on: hem1Δ yeasts grown under SFA accumulation conditions; test: Restoration of growth of lipointoxicated hem1Δ yeast; format: cell-based, Saccharomyces cerevisiae; settings: after 3 days, increasing concentrations
Experimental: The strain bearing the hem1Δ mutation is grown, under aerobic conditions, with shaking and at 28° C., in liquid YPG^A medium (YPG (1% yeast extract (w/v), 1% peptone (w/v) and 2% glucose (w/v)) supplemented with 80 μg/ml 6-aminolevulinic acid (ALA)). Lipointoxication by saturated fatty acids (SFA) is caused by depletion of unsaturated fatty acids (UFA), the synthesis of which is dependent on the presence of heme (the prosthetic group of the Ole1p enzyme in particular), by transfer to YPG^+ medium (YPG supplemented with 80 μg/ml ergosterol to compensate for the sterol depletion obtained under this condition). Lipointoxication can be induced on solid YPG^+ medium+2% agar (w/v) by transferring 3500 cells (hem1Δ from preculture in YPG^A) per cm^2 or, alternatively, in liquid medium by inoculating 2×10^6 cells/ml YPG^+. Classically, the effects of SFA lipointoxication are analyzed 7 hours after the transfer to YPG^+ medium. The ability of a compound to counter the deleterious effects of SFA lipointoxication, in turn, is evaluated successively to the addition of this compound on (or in) the YPG^+ transfer medium, after seeding with the cells.
Following the induction of SFA lipointoxication (for hem1Δ grown on solid medium) 5 μl drops of solutions of the various compounds at 10 mM in dimethylsulfoxide (DMSO) or ethanol (EtOH) are deposited on the surface of the agar. The ability of a compound to counter the arrest of lipid-induced cell growth is estimated by the appearance of a halo of hem1Δ colonies at the site of the deposition of said compound after 3 days of culture at 28° C. (see Deguil et al., 2011).
Jointly with the induction of SFA lipointoxication (for hem1Δ in liquid medium), the various compounds are added to the cultures at an initial concentration of 200 μM. Proliferation is monitored by spectrometric measurement of cell density, at regular time intervals (every hour over the duration of the observation). At a wavelength of 600 nm, one optical density unit (OD600 nm) corresponds to 2×10^7 cells/ml.

[2] = tested on: QM strain (cells not synthesizing triglycerides); test: Toxicity test on QM strain (growth inhibition halos); format: cell-based, Saccharomyces cerevisiae; settings: 5 μl drops on agar, after three days
Experimental: Drops (5 μl) of OAG, LPA or oleic acid were deposited, from stock solutions at the indicated concentrations, on the surface of an agar medium over which the QM strain had been spread beforehand. […] These halos are, however, not observed in the presence of LPA or of OAG.
In parallel, wild-type (WT) and quadruple mutant (QM) strains are grown, under aerobic conditions, with shaking and at 28° C., in liquid YPG medium before seeding 3500 cells per cm^2 of YPG+2% agar (w/v). Following this transfer to solid medium, 1 μl drops of 1, 10 and 100 mM solutions of the various compounds in DMSO or EtOH are deposited on the agar surface. Separately, DMSO and EtOH are also deposited in order to evaluate the intrinsic toxicity of these two solvents. After 3 days of culture at 28° C., the toxicity of the compounds tested is evaluated by comparing the growth inhibition halo diameters obtained for the depositions of pure solvent with those of the depositions of the various concentrations of the compounds tested. Unlike the WT strain, the QM strain is incapable of buffering excess exogenous oleic acid in the form of neutral lipids (triglycerides (TG) or esterified sterols (ES)) in lipid droplets.

[3] = tested on: BRIN-BD11 pancreatic β-cells; test: Cell viability of palmitic acid-lipointoxicated pancreatic β-cells (propidium iodide, flow cytometry); format: cell-based, rat; settings: BRIN-BD11, 200 μM palmitic acid
Experimental: (§1) Pancreatic β-cells, BRIN-BD11, were grown under control conditions or in the presence of an exogenous source of saturated fatty acid (200 μM palmitic acid), as described by Dhayal & Morgan (2011), in order to generate lipointoxication conditions, with or without the addition of OAG. A) The proportion of dead cells was estimated in the absence (control) or presence of palmitic acid, for increasing concentrations of OAG. B) eIF2α phosphorylation levels were also analyzed under the various conditions by Western blot, in the presence or absence (Ø) of OAG, and were normalized to total eIF2α.
The lipid species are prepared in ethanol before being complexed with bovine serum albumin (BSA, first depleted of fatty acids) by incubation for 1 hour at 37° C. The palmitic acid stock solution is obtained by adding one volume of ethanol before the whole is heated to 70° C. for homogenization. OAG and LPA solutions are prepared in 100% ethanol at room temperature. For the incubations of mammalian cells, the final BSA and ethanol concentrations in the culture medium are kept at 1% and 0.5% (w/v), respectively.
The rat pancreatic β-cell line (BRIN-BD11) is grown in complete RPMI-1640 medium, containing 11 mM glucose and supplemented with 10% (v/v) fetal calf serum (FCS), 2 mM L-glutamine, 100 U/ml penicillin and 100 μg/ml streptomycin. For each experiment, the cells are first seeded at a density of 0.5×10^5 cells/ml in 6-well plates for 24 hours. Thereafter, the complete medium is replaced by an equivalent lacking FCS but containing the lipid reagents of interest, at the desired concentrations, complexed with BSA. Under the control conditions, identical amounts of BSA and ethanol are then used. […] After incubation on ice for 10 minutes, the samples thus obtained are analyzed by flow cytometry. A Beckman Coulter EPICS XL MCL is used for the quantification, an FL3 channel is used to detect the emissions of the PI intercalated in the DNA, and the analysis is carried out using the EXPO32 ADC software (Applied Cytometry Systems, V 1.1 build 207).

[4] = tested on: eIF2α phosphorylation (UPR); test: eIF2α phosphorylation by Western blot in lipointoxicated β-cells; format: cell-based, rat; settings: BRIN-BD11, 200 μM palmitic acid
Experimental: as §1
BRIN-BD11 cells are seeded at a density of 0.5×10^5 cells/ml in T25 flasks for 24 hours. As indicated above, the complete medium is then replaced by an equivalent lacking FCS but containing the lipid reagents of interest. After 6 hours of incubation, total protein is extracted using lysis buffer (20 mM Tris, 150 mM NaCl, 1 mM EDTA and 1% (v/v) Triton-X) containing protease and phosphatase inhibitors. […] The densitometric analysis of the relative abundance of phosphorylated or non-phosphorylated forms of eIF2α protein is carried out with the Fluor-S Multilmager analysis system combined with the Quantity One software (Bio-Rad UK Ltd).

CCCCCCCC/C=C\CCCCCCCC(=O)OC[C@@H](O)COP(=O)(O)O [LPA, 1-oleoyl-sn-glycerol-3-phosphate]
Restoration of the growth of hem1Δ yeasts [1]: restore the growth | Growth inhibition halos on QM strain [2]: not observed

CCCCCCCC/C=C\CCCCCCCC(=O)OC[C@H](CO)OC(C)=O [OAG, 1-oleoyl-2-acetyl-sn-glycerol]
Restoration of the growth of hem1Δ yeasts [1]: restore the growth | Growth inhibition halos on QM strain [2]: not observed | Apoptosis / proportion of dead cells of pancreatic β-cells [3]: prevents apoptosis | eIF2α phosphorylation level normalized to total eIF2α (UPR intensity) [4]: reduces the UPR
